# Measured values taken from US8987193B2, “Nisin derivatives and the use thereof” (University College Cork—National University of Ireland, Cork, priority 2008, dated 2015).
# Entries after “also recorded” stand apart in the source; their conditions may differ. Ends that are not written are not given here.
# Tests used:
# indicator strains = assay: Deferred antagonism assays, various indicator strains (summary); format: cell-based; conditions: for Strain(s) against which the derivative (producing strain) displays enhanced bioactivity: relative to nisin A-producing control, value = strains listed
# Method in brief: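 Producer strains were replicated on GM17 or GM17 x-gal agar, grown overnight, then overlaid with GM17, BHI, TS or MH soft agar (0.75% w/v) seeded with the indicator strain. Zone size was taken as the clearing diameter minus the diameter of bacterial growth (5 mm).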
# S. aureus CBC4 = assay: Deferred antagonism assay; format: cell-based; parameters: key: + = Enhanced bioactivity relative to control; − = Bioactivity equal to or less than control; NA = no activity evident; conditions: producing strain
# Method in brief: (§1)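 L. lactis NZ9800 strains expressing nisin A hinge variants were replicated or spotted on GM17 agar, grown overnight, then overlaid with 0.75% w/v agar seeded with indicator. Zone size is the clearing diameter minus 5 mm colony growth.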
# L. lactis CBC8 = assay: Deferred antagonism assay; format: cell-based; parameters: key: + = Enhanced bioactivity relative to control; − = Bioactivity equal to or less than control; NA = no activity evident; conditions: producing strain
# Method in brief: as §1
# [1] = system: Listeria monocytogenes 33423; assay: Deferred antagonism assay; format: cell-based; conditions: nisin strain; L. monocytogenes 33423
# Description: (§2) Deferred antagonism assays were performed by replicating strains on GM17 or GM17 x-gal agar plates and allowing them to grow overnight before overlaying with either GM17/BHI/TS/MH agar (0.75% w/v agar) seeded with the appropriate indicator strain. Zone size was calculated as the diameter of the zone of clearing minus the diameter of bacterial growth (5 mm) For higher throughput screening of N20PXX, XM21VX, XXK22T and XXX banks deferred antagonism assays were performed by replicating strains using a 96 pin replicator (Boekel) or spotting 5 μl of a fresh overnight culture on GM17 agar plates and allowing them to grow overnight. […] Additional sets of indicators were employed to further assess/reassess the bioactivity of a number of strains. […] For well-diffusion assays molten agar was cooled to 48° C. and seeded with the appropriate indicator strain. The inoculated medium was rapidly transferred into sterile Petri plates in 50 ml volumes, allowed to solidify and dried. Wells (4.6 mm in diameter) were then made in the seeded plates. Purified nisin and mutant nisins were resuspended in 0.005% acetic acid, serially diluted, 50 μl volumes were dispensed into the aforementioned wells and the plates incubated at 37° C. overnight. Bioactivity was expressed as arbitrary units/ml (AU/ml) and calculated as the reciprocal of the highest dilution that gave a definite zone multiplied by the conversion factor (i.e. 20 when 50 μl was used) (Ryan et al., 1996).
# [2] = system: Listeria monocytogenes 33116; assay: Deferred antagonism assay; format: cell-based; conditions: nisin strain; L. monocytogenes 33116
# Description: as §2
# [3] = system: Listeria monocytogenes 33077; assay: Deferred antagonism assay; format: cell-based; conditions: nisin strain; L. monocytogenes 33077
# Description: as §2
# [4] = system: Listeria monocytogenes LO28; assay: Deferred antagonism assay; format: cell-based; conditions: nisin strain; L. monocytogenes LO28
# Description: as §2
# [5] = system: Listeria monocytogenes 33225; assay: Deferred antagonism assay; format: cell-based; conditions: nisin strain; L. monocytogenes 33225
# Description: as §2
# [6] = system: Listeria monocytogenes 33186; assay: Deferred antagonism assay; format: cell-based; conditions: nisin strain; L. monocytogenes 33186
# Description: as §2
# [7] = system: Listeria monocytogenes F2365; assay: Deferred antagonism assay; format: cell-based; conditions: nisin strain; L. monocytogenes F2365
# Description: as §2
# [8] = system: Listeria monocytogenes 33037; assay: Deferred antagonism assay; format: cell-based; conditions: nisin strain; L. monocytogenes 33037
# Description: as §2
# Listeria innocua FH2117 = assay: Deferred antagonism assay; format: cell-based; conditions: nisin strain
# Description: as §2
# [9] = system: Listeria monocytogenes 33013; assay: Deferred antagonism assay; format: cell-based; conditions: nisin strain; L. monocytogenes 33013
# Description: as §2
# [10] = system: Listeria monocytogenes CD1038; assay: Deferred antagonism assay; format: cell-based; conditions: nisin strain; L. monocytogenes CD1038
# Description: as §2
# [11] = system: Listeria monocytogenes 33411; assay: Deferred antagonism assay; format: cell-based; conditions: nisin strain; L. monocytogenes 33411
# Description: as §2
# [12] = system: Listeria monocytogenes CD83; assay: Deferred antagonism assay; format: cell-based; conditions: nisin strain; L. monocytogenes CD83
# Description: as §2
# [13] = system: Listeria monocytogenes 33176; assay: Deferred antagonism assay; format: cell-based; conditions: nisin strain; L. monocytogenes 33176
# Description: as §2
# [14] = system: Listeria monocytogenes 33007; assay: Deferred antagonism assay; format: cell-based; conditions: nisin strain; L. monocytogenes 33007
# Description: as §2
# [15] = system: Listeria monocytogenes 33090; assay: Deferred antagonism assay; format: cell-based; conditions: nisin strain; L. monocytogenes 33090
# Description: as §2
# [16] = system: Listeria monocytogenes SLCC 4949; assay: Deferred antagonism assay; format: cell-based; conditions: nisin strain; L. monocytogenes SLCC 4949
# Description: as §2
# [17] = system: Listeria monocytogenes SLCC 6793; assay: Deferred antagonism assay; format: cell-based; conditions: nisin strain; L. monocytogenes SLCC 6793
# Description: as §2
# [18] = system: Listeria monocytogenes NRRLB 33038; assay: Deferred antagonism assay; format: cell-based; conditions: nisin strain; L. monocytogenes NRRLB 33038
# Description: as §2
# L. monocytogenes EGDe = assay: Deferred antagonism assay; format: cell-based; parameters: key: −, no inhibition; (+), clear zone directly above the colony; +, 1-5 mm zone; ++, 6-10 mm zone; +++; conditions: nisin strain; Listeria monocytogenes EDGe
# Description: as §2
# C. sporogenes CBC5 = assay: Deferred antagonism assay; format: cell-based, Clostridium sporogenes; parameters: key: + = Enhanced bioactivity relative to control; − = Bioactivity equal to or less than control; NA = no activity evident; conditions: producing strain
# [19] = system: 30 L. monocytogenes and 3 L. innocua strains; assay: Deferred antagonism assay, collection of Listeria strains; format: cell-based; conditions: of 30 L. monocytogenes and 3 L. innocua strains
# Description: as §2
Substance,Strain(s) against which the derivative (producing strain) displays enhanced bioactivity (indicator strains),Bioactivity relative to control (S. aureus CBC4),Bioactivity relative to control (L. lactis CBC8),Activity score (zone) [1],Activity score (zone) [2],Activity score (zone) [3],Activity score (zone) [4],Activity score (zone) [5],Activity score (zone) [6],Activity score (zone) [7],Activity score (zone) [8],Activity score (zone) (Listeria innocua FH2117),Activity score (zone) [9],Activity score (zone) [10],Activity score (zone) [11],Activity score (zone) [12],Activity score (zone) [13],Activity score (zone) [14],Activity score (zone) [15],Activity score (zone) [16],also measured
"NisinA K22A (ITSISLCTPGCKTGALMGCNMATATCHCSIHVSK; not fully specified; also: lantibiotic: lanthionine rings and dehydro residues not placed; UniProt P13068 24-57, looked up, variant K22A) [nisin A derivative, hinge substitution K22A]","L. monocytogenes K22A and L. lactis CBC8; also recorded: L. lactis CBC8 and L. monocytogenes CBC2 , and an additional 13 L. monocytogenes and 3 L. innocua; also recorded: additional 13 L. monocytogenes and 3 L. innocua, S. aureus; also recorded: ST528 and DPC5425, Strep. agalactiae ATCC 13813",−,+,"+ (+, 1-5 mm zone)","+ (+, 1-5 mm zone)","+ (+, 1-5 mm zone)","+ (+, 1-5 mm zone)","+ (+, 1-5 mm zone)","+ (+, 1-5 mm zone)","+ (+, 1-5 mm zone)","+ (+, 1-5 mm zone)","+ (+, 1-5 mm zone)","+ (+, 1-5 mm zone)","+ (+, 1-5 mm zone)","+ (+, 1-5 mm zone)","+ (+, 1-5 mm zone)","+ (+, 1-5 mm zone)","+ (+, 1-5 mm zone)","+ (+, 1-5 mm zone)","+ (+, 1-5 mm zone)","Activity score (zone) [17]: ++ (++, 6-10 mm zone); Activity score (zone) [18]: + (+, 1-5 mm zone); Activity score (zone) (L. monocytogenes EGDe): + (+, 1-5 mm zone); Bioactivity relative to control (C. sporogenes CBC5): −; number of strains with enhanced bioactivity (relative to the control) [19]: 16; number of strains with equal levels of bioactivity [19]: 17"
"NisinA M21G (ITSISLCTPGCKTGALMGCNGKTATCHCSIHVSK; not fully specified; also: lantibiotic: lanthionine rings and dehydro residues not placed; UniProt P13068 24-57, looked up, variant M21G) [nisin A derivative, hinge substitution M21G]","L. monocytogenes CBC2, Staph. aureus CBC4 and C. sporogenes CBC5; also recorded: L. monocytogenes CBC2 , S. aureus CBC4, ST528 , and DPC5425, Strep. agalactiae ATCC 13813, C. sporogenes CBC5 + an additional 7 L. monocytogenes and 3 L. innocua",+,−,"+ (+, 1-5 mm zone)","+ (+, 1-5 mm zone)","+ (+, 1-5 mm zone)","+ (+, 1-5 mm zone)","+ (+, 1-5 mm zone)","+ (+, 1-5 mm zone)","+ (+, 1-5 mm zone)","+ (+, 1-5 mm zone)","+ (+, 1-5 mm zone)","+ (+, 1-5 mm zone)","+ (+, 1-5 mm zone)","+ (+, 1-5 mm zone)","+ (+, 1-5 mm zone)","+ (+, 1-5 mm zone)","+ (+, 1-5 mm zone)","+ (+, 1-5 mm zone)","+ (+, 1-5 mm zone)","relative bioactivity against the indicators of Table 6 (indicator strains; Staph. aureus ST528, DPC5245 and Strep. agalactiae ATCC 13813 taken together): approximately 120%; Activity score (zone) [17]: ++ (++, 6-10 mm zone); Activity score (zone) [18]: + (+, 1-5 mm zone); Activity score (zone) (L. monocytogenes EGDe): −; Bioactivity relative to control (C. sporogenes CBC5): +; number of strains with enhanced bioactivity (relative to the control) [19]: 10; number of strains with equal levels of bioactivity [19]: 19; number of strains with reduced activity [19]: 4"
"NisinA M21I (ITSISLCTPGCKTGALMGCNIKTATCHCSIHVSK; not fully specified; also: lantibiotic: lanthionine rings and dehydro residues not placed; UniProt P13068 24-57, looked up, variant M21I) [nisin A derivative, hinge substitution M21I]","L. momocytogenes CBC2, Staph. aureus CBC4, C. sporogenes CBC5, L. lactis CBC7 and CBC8; also recorded: L. monocytogenes CBC2, S. aureus CBC4, C. sporogenes CBC5, L. lactis CBC7 and an additional 15 L. monocytogenes and 2 L. innocua",+,+,"+ (+, 1-5 mm zone)","++ (++, 6-10 mm zone)","+ (+, 1-5 mm zone)","++ (++, 6-10 mm zone)","+ (+, 1-5 mm zone)","+ (+, 1-5 mm zone)","+ (+, 1-5 mm zone)","++ (++, 6-10 mm zone)","+ (+, 1-5 mm zone)","+ (+, 1-5 mm zone)","++ (++, 6-10 mm zone)","+ (+, 1-5 mm zone)","+ (+, 1-5 mm zone)","+ (+, 1-5 mm zone)","++ (++, 6-10 mm zone)","+ (+, 1-5 mm zone)","+ (+, 1-5 mm zone)","Activity score (zone) [17]: +++ (+++, <10 mm zone); Activity score (zone) [18]: + (+, 1-5 mm zone); Activity score (zone) (L. monocytogenes EGDe): + (+, 1-5 mm zone); Bioactivity relative to control (C. sporogenes CBC5): +; number of strains with enhanced bioactivity (relative to the control) [19]: 17; number of strains with equal levels of bioactivity [19]: 15; number of strains with reduced activity [19]: 1"
